The values below come from US7468394B1, “Sterile pharmaceutical composition and process for a solution of propofol emulsion having microbial growth retardation” (priority 2003, dated 2008).

On this series, the source says: Propofol has limited water solubility, however it is easy to dissolve in soybean oil. As such, it must be incorporated with a solubilizing agent, surfactants or solvents to generate oil-in-water emulsions. The oil component of the emulsion is contained within a shell of the surfactants (egg lecithin), thus forming a “sunflower” structure, which can be seen in Table 1. Currently marketed propofol products are available as oil-in-water emulsions.

For the compound `CC(C)c1cccc(C(C)C)c1O` [propofol, 2,6-Diisopropylphenol], the “partition coefficient of propofol between soybean oil and water” value is given as 4,220.
